According to ChEMBL document CHEMBL1158086, “Phenolic marine natural products as aldose reductase inhibitors” (J Nat Prod, 2006):

Assay: Inhibition of human recombinant ALR2

Row | SMILES | IC50 [µM]
1 | O=C1C=C(c2ccc(O)cc2)/C(=C/c2cc(Br)c(O)c(Br)c2)O1 | > 57
2 | O=C(c1ccc(O)cc1)c1cncc(-c2ccc(O)cc2)n1 | 41.4
3 | O=C1C=C(c2cc(Br)c(O)c(Br)c2)/C(=C/c2cc(Br)c(O)c(Br)c2)O1 [RUBROLIDE A] | 19.8
4 | O=C1C=C(c2ccc(O)c(Br)c2)/C(=C/c2cc(Br)c(O)c(Br)c2)O1 [RUBROLIDE J] | 48.1
5 | O=C(c1ccc(O)cc1)c1ncc(-c2ccc(O)cc2)nc1C(=O)c1ccc(O)cc1 | 19.4
6 | O=C1O/C(=C\c2cc(Br)c(O)c(Br)c2)C(c2cc(Br)c(O)c(Br)c2)=C1Cl | 18.7
7 | O=C1O/C(=C\c2ccc(O)c(Br)c2)C(c2ccc(O)cc2)=C1Cl | 46.2
8 | O=C(c1ccc(O)cc1)c1nc(-c2ccc(O)cc2)c[nH]1 | 21.4

The next compounds have a lower IC50 than those just listed; values first:

Row | IC50 [µM] | SMILES
9 | 16.9 | O=C1O/C(=C\c2ccc(O)c(Br)c2)C(c2ccc(O)c(Br)c2)=C1Cl
10 | 12.7 | O=C1O/C(=C\c2cc(Br)c(O)c(Br)c2)C(c2ccc(O)c(Br)c2)=C1Cl
11 | 3.6 | O=C1NC(=O)[C@@]2(CCOc3ccc(F)cc32)N1 [SORBINIL]
12 | 0.8 | O=C1O/C(=C\c2cc(Br)c(O)c(Br)c2)C(c2ccc(O)cc2)=C1Cl
13 | 0.6 | O=c1oc(-c2ccc(O)cc2)cn2cc(-c3ccc(O)c(I)c3)c(-c3ccc(O)cc3)c12 [LUKIANOL B]
